Source: patent US10683269B2 (MISSION THERAPEUTICS LIMITED, priority 2016, dated 2020)

target: T1, USP7 (Homo sapiens, UniProt Q93009); assay: USP7 biochemical IC50 assay (fluorescence polarisation, TAMRA labelled peptide linked to ubiquitin via an iso-peptide bond); details: 30 min pre-incubation of enzyme and compound, read after 2 hr incubation at room temperature, read-out: IC50 range
T1 construct: The USP7 construct was PCR amplified and cloned into a pFLAG-CMV-6a vector (Sigma-Aldrich) with an N-terminal FLAG tag; made in house; host or cells: HEK293T
How it was run: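 Fluorescence polarisation at 540 nm excitation/590 nm emission, read immediately and after 2 hr at room temperature, following addition of 50 nM TAMRA-labelled iso-peptide ubiquitin substrate.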

T1 sequence (Q93009 whole entry): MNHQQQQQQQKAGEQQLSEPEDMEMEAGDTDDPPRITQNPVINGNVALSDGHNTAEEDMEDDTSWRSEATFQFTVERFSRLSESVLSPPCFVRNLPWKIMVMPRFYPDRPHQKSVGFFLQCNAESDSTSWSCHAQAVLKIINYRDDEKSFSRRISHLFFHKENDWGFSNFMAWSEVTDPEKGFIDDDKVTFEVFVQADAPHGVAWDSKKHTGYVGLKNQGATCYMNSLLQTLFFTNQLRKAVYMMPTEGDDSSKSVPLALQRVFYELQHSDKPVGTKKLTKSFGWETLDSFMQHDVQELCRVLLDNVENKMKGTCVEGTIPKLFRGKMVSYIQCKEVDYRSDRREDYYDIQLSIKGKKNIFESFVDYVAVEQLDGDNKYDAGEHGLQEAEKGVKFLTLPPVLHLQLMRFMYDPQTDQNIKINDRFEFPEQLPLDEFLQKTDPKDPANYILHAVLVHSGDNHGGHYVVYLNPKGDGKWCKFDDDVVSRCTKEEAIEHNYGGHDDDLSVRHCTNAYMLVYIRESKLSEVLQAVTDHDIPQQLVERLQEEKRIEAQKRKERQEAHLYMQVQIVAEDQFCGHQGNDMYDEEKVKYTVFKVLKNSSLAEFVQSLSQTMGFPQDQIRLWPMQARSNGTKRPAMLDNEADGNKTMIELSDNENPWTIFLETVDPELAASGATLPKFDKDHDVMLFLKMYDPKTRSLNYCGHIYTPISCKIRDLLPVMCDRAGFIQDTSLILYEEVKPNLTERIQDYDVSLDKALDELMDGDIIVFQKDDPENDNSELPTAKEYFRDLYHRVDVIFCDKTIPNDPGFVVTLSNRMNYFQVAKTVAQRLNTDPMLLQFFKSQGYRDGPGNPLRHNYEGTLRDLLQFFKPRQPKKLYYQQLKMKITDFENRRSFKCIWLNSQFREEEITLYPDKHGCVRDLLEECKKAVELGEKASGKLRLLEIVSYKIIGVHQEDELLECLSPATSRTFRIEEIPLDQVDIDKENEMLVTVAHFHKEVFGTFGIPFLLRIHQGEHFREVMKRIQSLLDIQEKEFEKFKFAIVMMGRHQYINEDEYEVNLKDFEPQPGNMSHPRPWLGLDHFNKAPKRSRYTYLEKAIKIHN

SMILES	IC50
N#Cc1ccc(-c2cc(CNc3ccn[nH]3)cc3c2CN(C#N)C3)cc1 [Example 230, 6-(((1H-pyrazol-5-yl)amino)methyl)-4-(4-cyanophenyl)isoindoline-2-carbonitrile]	< 1000 nM
N#Cc1cc2c(c(-c3ccccc3C(N)=O)c1)CN(C#N)C2 [Example 231, 2-(2,6-dicyanoisoindolin-4-yl)benzamide]	1000 to 10000 nM
CN(C)C(=O)c1cc2c(c(-c3ccc(C#N)cc3)c1)CN(C#N)C2 [Example 232, 2-cyano-7-(4-cyanophenyl)-N,N-dimethylisoindoline-5-carboxamide]	1000 to 10000 nM
N#Cc1ccc(-c2cc(C(N)=O)cc3c2CN(C#N)C3)c(C#N)c1 [Example 233, 2-cyano-7-(2,4-dicyanophenyl)isoindoline-5-carboxamide]	1000 to 10000 nM
COc1ccc(C#N)c(-c2cc(C(N)=O)cc3c2CN(C#N)C3)c1 [Example 234, 2-cyano-7-(2-cyano-5-methoxyphenyl)isoindoline-5-carboxamide]	1000 to 10000 nM
N#Cc1cc(F)ccc1-c1cc(C(N)=O)cc2c1CN(C#N)C2 [Example 235, 2-cyano-7-(2-cyano-4-fluorophenyl)isoindoline-5-carboxamide]	1000 to 10000 nM
N#Cc1ccc(-c2cc(C(=O)N3CCS(=O)(=O)CC3)cc3c2CN(C#N)C3)cc1 [Example 236, 4-(4-cyanophenyl)-6-(1,1-dioxidothiomorpholine-4-carbonyl)isoindoline-2-carbonitrile]	1000 to 10000 nM
CNC(=O)c1cc2c(c(-c3ccc(C#N)cc3)c1)CN(C#N)C2 [Example 237, 2-cyano-7-(4-cyanophenyl)-N-methylisoindoline-5-carboxamide]	1000 to 10000 nM
N#Cc1ccc(-c2cc(C(=O)NC3CCOCC3)cc3c2CN(C#N)C3)cc1 [Example 238, 2-cyano-7-(4-cyanophenyl)-N-(tetrahydro-2H-pyran-4-yl)isoindoline-5-carboxamide]	1000 to 10000 nM
CNC(=O)c1cc2c(c(-c3ccc(C#N)cc3C#N)c1)CN(C#N)C2 [Example 239, 2-cyano-7-(2,4-dicyanophenyl)-N-methylisoindoline-5-carboxamide]	1000 to 10000 nM
CNC(=O)c1cc2c(c(-c3ccc(F)cc3)c1)CN(C#N)C2 [Example 240, 2-cyano-7-(4-fluorophenyl)-N-methylisoindoline-5-carboxamide]	< 1000 nM
N#Cc1ccccc1-c1cc(C(N)=O)cc2c1CN(C#N)C2 [Example 241, 2-cyano-7-(2-cyanophenyl)isoindoline-5-carboxamide]	1000 to 10000 nM
CS(=O)(=O)Nc1cc2c(c(-c3ccccc3C#N)c1)CN(C#N)C2 [Example 242, N-(2-cyano-7-(2-cyanophenyl)isoindolin-5-yl)methanesulfonamide]	1000 to 10000 nM
CS(=O)(=O)Nc1cc2c(c(-c3ccc(C#N)cc3C#N)c1)CN(C#N)C2 [Example 243, N-(2-cyano-7-(2,4-dicyanophenyl)isoindolin-5-yl)methanesulfonamide]	1000 to 10000 nM
CS(=O)(=O)Nc1cc2c(c(-c3ccc(C#N)cc3)c1)CN(C#N)C2 [Example 244, N-(2-cyano-7-(4-cyanophenyl)isoindolin-5-yl)methanesulfonamide]	1000 to 10000 nM
COc1ccc(C#N)c(-c2cc(NS(C)(=O)=O)cc3c2CN(C#N)C3)c1 [Example 245, N-(2-cyano-7-(2-cyano-5-methoxyphenyl)isoindolin-5-yl)methanesulfonamide]	1000 to 10000 nM
N#CN1Cc2nc(NCC3CCOCC3)cc(-c3ccc(F)cc3)c2C1 [Example 246, 4-(4-fluorophenyl)-2-(((tetrahydro-2H-pyran-4-yl)methyl)amino)-5,7-dihydro-6H-pyrrolo[3,4-b]pyridine-6-carbonitrile]	1000 to 10000 nM
N#CN1Cc2nc(NCc3ccccn3)cc(-c3ccc(F)cc3)c2C1 [Example 247, 4-(4-fluorophenyl)-2-((pyridin-2-ylmethyl)amino)-5,7-dihydro-6H-pyrrolo[3,4-b]pyridine-6-carbonitrile]	1000 to 10000 nM
Cn1nccc1CNc1cc(-c2ccc(F)cc2)c2c(n1)CN(C#N)C2 [Example 248, 4-(4-fluorophenyl)-2-(((1-methyl-1H-pyrazol-5-yl)methyl)amino)-5,7-dihydro-6H-pyrrolo[3,4-b]pyridine-6-carbonitrile]	< 1000 nM
CC(=O)Nc1cc(-c2ccc(F)cc2)c2c(n1)CN(C#N)C2 [Example 249, N-(6-cyano-4-(4-fluorophenyl)-6,7-dihydro-5H-pyrrolo[3,4-b]pyridin-2-yl)acetamide]	1000 to 10000 nM
N#CN1Cc2nc(NCC(O)CO)cc(-c3ccc(F)cc3)c2C1 (stereo not drawn) [Example 250, 2-((2,3-dihydroxypropyl)amino)-4-(4-fluorophenyl)-5,7-dihydro-6H-pyrrolo[3,4-b]pyridine-6-carbonitrile]	1000 to 10000 nM
CN(C)C(=O)Cc1cc2c(c(-c3ccccc3)c1)CN(C#N)C2 [Example 251, 2-(2-cyano-7-phenylisoindolin-5-yl)-N,N-dimethylacetamide]	1000 to 10000 nM
CS(=O)(=O)CCc1cc2c(c(-c3ccccc3)c1)CN(C#N)C2 [Example 252, 6-(2-(methylsulfonyl)ethyl)-4-phenylisoindoline-2-carbonitrile]	1000 to 10000 nM

SMILES	IC50
CS(=O)(=O)Cc1cc2c(c(-c3ccccc3)c1)CN(C#N)C2 [Example 253, 6-((methylsulfonyl)methyl)-4-phenylisoindoline-2-carbonitrile]	1000 to 10000 nM
COCCc1cc2c(c(-c3ccc(C#N)cc3)c1)CN(C#N)C2 [Example 254, 4-(4-cyanophenyl)-6-(2-methoxyethyl)isoindoline-2-carbonitrile]	1000 to 10000 nM
COCCc1cc2c(c(-c3ccccc3C(N)=O)c1)CN(C#N)C2 [Example 255, 2-(2-cyano-6-(2-methoxyethyl)isoindolin-4-yl)benzamide]	1000 to 10000 nM
N#Cc1ccc(-c2cc(CCc3cccnc3)cc3c2CN(C#N)C3)cc1 [Example 256, 4-(4-cyanophenyl)-6-(2-(pyridin-3-yl)ethyl)isoindoline-2-carbonitrile]	1000 to 10000 nM
CC(=O)N1CCC(CCc2cc3c(c(-c4ccc(C#N)cc4)c2)CN(C#N)C3)CC1 [Example 257, 6-(2-(1-acetylpiperidin-4-yl)ethyl)-4-(4-cyanophenyl)isoindoline-2-carbonitrile]	1000 to 10000 nM
N#Cc1ccc(-c2c(F)ccc3c2CN(C#N)C3)c(C(N)=O)c1 [Example 260, 5-cyano-2-(2-cyano-5-fluoroisoindolin-4-yl)benzamide]	1000 to 10000 nM
N#Cc1ccc(-c2ccc(F)c3c2CN(C#N)C3)c(C(N)=O)c1 [Example 261, 5-cyano-2-(2-cyano-7-fluoroisoindolin-4-yl)benzamide]	1000 to 10000 nM
CN1CC(c2cc3c(c(-c4ccccc4)c2)CN(C#N)C3)CCC1=O (stereo not drawn) [Example 262, 6-(1-methyl-6-oxopiperidin-3-yl)-4-phenylisoindoline-2-carbonitrile]	1000 to 10000 nM
Cn1cc(-c2cc3c(c(-c4ccccc4)c2)CN(C#N)C3)ccc1=O [Example 263, 6-(1-methyl-6-oxo-1,6-dihydropyridin-3-yl)-4-phenylisoindoline-2-carbonitrile]	1000 to 10000 nM
N#Cc1ccc(-c2cc(NC(=O)C3CCOCC3)cc3c2CN(C#N)C3)cc1 [Example 264, N-(2-cyano-7-(4-cyanophenyl)isoindolin-5-yl)tetrahydro-2H-pyran-4-carboxamide]	1000 to 10000 nM
CN1CC(C(=O)Nc2cc3c(c(-c4ccc(C#N)cc4)c2)CN(C#N)C3)CC1=O (stereo not drawn) [Example 265, N-(2-cyano-7-(4-cyanophenyl)isoindolin-5-yl)-1-methyl-5-oxopyrrolidine-3-carboxamide]	1000 to 10000 nM
CN1CC(C(=O)Nc2cc3c(c(-c4ccc(C#N)cc4)c2)CN(C#N)C3)CCC1=O (stereo not drawn) [Example 266, N-(2-cyano-7-(4-cyanophenyl)isoindolin-5-yl)-1-methyl-6-oxopiperidine-3-carboxamide]	1000 to 10000 nM
CN(C)CC(=O)Nc1cc2c(c(-c3ccc(C#N)cc3)c1)CN(C#N)C2 [Example 267, N-(2-cyano-7-(4-cyanophenyl)isoindolin-5-yl)-2-(dimethylamino)acetamide]	< 1000 nM
N#CN1Cc2cccc(N3C(=O)CCCC3=O)c2C1 [Example 268, 4-(2,6-dioxopiperidin-1-yl)isoindoline-2-carbonitrile]	10000 to 30000 nM
CNc1cc2c(c(-c3ccc(C#N)cc3)c1)CN(C#N)C2 [Example 269, 4-(4-cyanophenyl)-6-(methylamino)isoindoline-2-carbonitrile]	1000 to 10000 nM
CN(C)c1cc2c(c(-c3ccc(C#N)cc3)c1)CN(C#N)C2 [Example 270, 4-(4-cyanophenyl)-6-(dimethylamino)isoindoline-2-carbonitrile]	< 1000 nM
N#Cc1ccc(-c2cc(NCCO)cc3c2CN(C#N)C3)cc1 [Example 271, 4-(4-cyanophenyl)-6-((2-hydroxyethyl)amino)isoindoline-2-carbonitrile]	1000 to 10000 nM
CC(C)Nc1cc2c(c(-c3ccc(C#N)cc3)c1)CN(C#N)C2 [Example 272, 4-(4-cyanophenyl)-6-(isopropylamino)isoindoline-2-carbonitrile]	1000 to 10000 nM
N#Cc1ccc(-c2cc(NC3CCS(=O)(=O)CC3)cc3c2CN(C#N)C3)cc1 [Example 273, 4-(4-cyanophenyl)-6-((1,1-dioxidotetrahydro-2H-thiopyran-4-yl)amino)isoindoline-2-carbonitrile]	1000 to 10000 nM
N#Cc1ccc(-c2cc(NC3CCOCC3)cc3c2CN(C#N)C3)cc1 [Example 274, 4-(4-cyanophenyl)-6-((tetrahydro-2H-pyran-4-yl)amino)isoindoline-2-carbonitrile]	1000 to 10000 nM
N#Cc1ccc(-c2cc(NCC3CCOCC3)cc3c2CN(C#N)C3)cc1 [Example 275, 4-(4-cyanophenyl)-6-(((tetrahydro-2H-pyran-4-yl)methyl)amino)isoindoline-2-carbonitrile]	< 1000 nM
Cn1nccc1CNc1cc2c(c(-c3ccc(C#N)cc3)c1)CN(C#N)C2 [Example 276, 4-(4-cyanophenyl)-6-(((1-methyl-1H-pyrazol-5-yl)methyl)amino)isoindoline-2-carbonitrile]	1000 to 10000 nM
